Data on one compound can be found in patent US20260041679A1, “METHOD OF TREATING HYPERTENSION WITH THE ALDOSTERONE SYNTHASE INHIBITOR BAXDROSTAT” (CINCOR PHARMA, INC., priority 2022, published 2026).

The structures appear in SMILES notation.

This assay concerns the target T1, aldosterone synthase (Homo sapiens, UniProt P19099).
T1 construct: Pharmacodynamic measurements included plasma aldosterone, cortisol, and electrolytes; endogenous in cells; host or cells: human subjects in vivo (healthy volunteers; resistant hypertension patients)
T1 sequence (P19099 25-503): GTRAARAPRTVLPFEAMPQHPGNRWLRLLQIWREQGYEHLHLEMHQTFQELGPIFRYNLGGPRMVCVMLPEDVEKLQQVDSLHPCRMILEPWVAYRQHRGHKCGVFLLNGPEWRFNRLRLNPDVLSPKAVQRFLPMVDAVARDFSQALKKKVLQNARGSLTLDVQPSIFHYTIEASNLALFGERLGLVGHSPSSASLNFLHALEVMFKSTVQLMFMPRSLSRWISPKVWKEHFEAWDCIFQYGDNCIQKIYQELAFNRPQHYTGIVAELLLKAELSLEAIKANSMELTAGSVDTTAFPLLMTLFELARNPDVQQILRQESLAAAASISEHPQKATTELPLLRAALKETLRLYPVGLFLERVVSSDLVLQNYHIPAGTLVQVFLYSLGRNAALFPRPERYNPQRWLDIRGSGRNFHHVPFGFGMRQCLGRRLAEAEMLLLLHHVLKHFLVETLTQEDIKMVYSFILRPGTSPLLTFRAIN
Put plainly: Single ascending dose study, pharmacodynamics: aldosterone, cortisol with ACTH challenge (Example 1). Type of assay: in vivo. On the procedure: Eighty-eight healthy male volunteers completed the first-in-human study of baxdrostat. In part 1 of the trial, subjects received a single oral dose of baxdrostat ranging from 1 to 360 mg in order to evaluate safety, tolerability, PK, and pharmacodynamics (PD). Part 2 evaluated the PK of a single 3 mg intravenous dose of baxdrostat.

For the compound `CCC(=O)N[C@@H]1CCCc2c(-c3ccc4c(c3)CCC(=O)N4C)cncc21` [baxdrostat, (R)—N-(4-(1-methyl-2-oxo-1,2,3,4-tetrahydroquinolin-6-yl)-5,6,7,8-tetrahydroisoquinolin-8-yl) propionamide], where the note is “single oral dose”, the “cortisol levels with an adrenocorticotropin hormone challenge” value was “no meaningful effect on cortisol levels”. The aldosterone levels entry (single oral dose 1 to 360 mg, fasted, low salt and normal salt diet) was “significantly reduced aldosterone levels in a dose-dependent manner”.
